Assay results reported in patent US9328104B2, “Selective androgen receptor modulators” (Pfizer Inc., priority 2012, dated 2016).

Biological target: T1, full length human Androgen Receptor (AR) (Homo sapiens, UniProt P10275)
T1 construct: transiently transfected in T225 cm^2 flasks with a full length human Androgen Receptor (AR) cDNA; expressed in transfected cells; host or cells: CV-1 cells (ATCC CCL-70), transiently transfected with AR cDNA in pcDNA3 and ARE-luciferase in pGL3
T1 sequence (P10275 1-920): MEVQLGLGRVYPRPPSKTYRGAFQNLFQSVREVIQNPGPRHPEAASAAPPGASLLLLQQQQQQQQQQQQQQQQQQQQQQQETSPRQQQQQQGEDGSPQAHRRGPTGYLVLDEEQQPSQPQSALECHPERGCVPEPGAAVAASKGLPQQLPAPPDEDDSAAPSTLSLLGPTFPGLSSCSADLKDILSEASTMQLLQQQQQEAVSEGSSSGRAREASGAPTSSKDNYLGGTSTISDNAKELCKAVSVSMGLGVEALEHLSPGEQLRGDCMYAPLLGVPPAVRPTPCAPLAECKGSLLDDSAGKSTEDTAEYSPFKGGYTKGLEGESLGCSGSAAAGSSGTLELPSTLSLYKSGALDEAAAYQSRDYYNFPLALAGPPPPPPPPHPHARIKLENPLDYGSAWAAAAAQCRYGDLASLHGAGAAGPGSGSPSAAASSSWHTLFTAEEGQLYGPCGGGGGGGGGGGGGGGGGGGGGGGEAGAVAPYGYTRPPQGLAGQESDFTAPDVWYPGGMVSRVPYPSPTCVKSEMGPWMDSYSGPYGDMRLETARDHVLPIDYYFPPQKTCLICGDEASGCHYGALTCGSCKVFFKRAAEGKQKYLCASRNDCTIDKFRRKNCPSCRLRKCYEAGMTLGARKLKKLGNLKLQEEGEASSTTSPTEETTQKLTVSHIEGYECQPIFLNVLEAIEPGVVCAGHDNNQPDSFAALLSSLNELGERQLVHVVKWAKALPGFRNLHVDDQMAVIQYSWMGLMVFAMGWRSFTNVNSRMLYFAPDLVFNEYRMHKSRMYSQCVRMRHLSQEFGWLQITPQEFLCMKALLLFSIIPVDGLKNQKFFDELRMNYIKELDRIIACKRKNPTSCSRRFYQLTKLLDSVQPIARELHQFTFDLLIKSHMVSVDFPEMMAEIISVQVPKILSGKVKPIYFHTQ
Experiment: Androgen Receptor-Mediated Transcriptional Assay (ARE-luciferase reporter in transiently transfected CV-1 cells)
Format: cell-based
Protocol: Androgen Receptor-Mediated Transcriptional Assay Summary
CV-1 cells (American Tissue Culture Collection cat# CCL-70) were expanded in Growth Media and transiently transfected in T225 cm^2 flasks with a full length human Androgen Receptor (AR) cDNA in the pcDNA3 expression vector and a human Androgen Response Element (ARE)-luciferase cDNA in the pGL3 vector (both from Invitrogen). DNA (μg) and Lipofectamine (μl) at a ratio of 1:3 were incubated with the cells in a total volume of 55 mL Basal Media for 4 hours. Cells were harvested by trypsinization and frozen back (−150° C. cryomed) at a concentration of 4.3 million cells/mL.
On the day of the assay, frozen cells were thawed and re-suspended in Re-suspension Media and plated at 40,000 cells/well (in 100 μL volume) in 96 well white plates and were incubated for at least 4 h at 37° C., 5% CO2. After incubation, cells were treated with the compounds to be screened. 10 mM stocks of the compounds were serially diluted 1:10 in 100% DMSO followed by an additional 1:100 dilution in Assay Media. These dilution series were added to the cell plates resulting in a further 1:10 dilution and a final % DMSO of 0.1%. The vehicle control wells also contained this dilution of DMSO and the positive control wells contained […] (DHT) as an AR agonist at final concentration of 0.3 nM in 0.1% DMSO. Cells were incubated for 16-18 hours at 37° C. and 5% CO2. Then the culture media was removed from and the cells were lysed in 20 μL of cell lysis reagent for 5 minutes at room temperature. 50 μL of luciferase reagent was added to each well and luminescence, over 5 seconds, was measured.
EC50 (half maximal effective concentration) was calculated from concentration series plots which generated sigmoidal curves. Xlfit software was used to plot the best fit of the % effect vs concentration and to calculate the EC50.
Reagents and Materials used in the Androgen Receptor-Mediated Transcriptional Assay include the following: • Growth Media—DMEM/high glucose—10% FBS: 500 ml phenol red DMEM/high glucose (Gibco, Grand Island N.Y., cat #10569-010), 10% non heat-inactivated Fetal Bovine Serum (FBS) (Atlanta Biologicals, Norcross Ga., cat #S-12450), 1% Nonessential Amino Acids (Gibco, cat #11140-050), 1% Penicillin-Streptomycin (Gibco, cat #15140-122) • Basal Media—phenol red free DMEM/high glucose (Gibco, cat #31053-028)+1% Na Pyruvate (Gibco, cat #11360-070), 1% Nonessential Amino Acids (Gibco, cat #11140-050), 1% GlutaMAX-I (Gibco, cat #35050-061) • Re-suspension Media—basal media+1% Penicillin-Streptomycin (Gibco, cat #15140-122) • Assay Media—basal media+5% charcoal stripped FBS (HyClone, Logan Utah, Cat #SH30068)+1% Penicillin-Streptomycin (Gibco, cat #15140-122) • Cell Lysis Reagent—Promega, Cat #PAE1531 • Luciferase Reagent—Promega, Cat #PAE1483

Work on `C[C@H]1CNS(=O)(=O)N1c1ccc2c(C#N)cccc2c1` (single isomer, unassigned) [Compound 9] yielded an EC50 of 4 nM.
